Measured values reported in patent publication US11325889B2, “Substituted 3-((3-aminophenyl)amino)piperidine-2,6-dione compounds, compositions thereof, and methods of treatment therewith” (Celgene Corporation, priority 2018, dated 2022).
Like-named read-outs stand apart in the source and are kept apart here.

Target: T1, AR protein in VCaP cells (Homo sapiens, UniProt P10275)
T1 construct: endogenous in cells; host or cells: VCaP cells
T1 sequence (P10275 1-920): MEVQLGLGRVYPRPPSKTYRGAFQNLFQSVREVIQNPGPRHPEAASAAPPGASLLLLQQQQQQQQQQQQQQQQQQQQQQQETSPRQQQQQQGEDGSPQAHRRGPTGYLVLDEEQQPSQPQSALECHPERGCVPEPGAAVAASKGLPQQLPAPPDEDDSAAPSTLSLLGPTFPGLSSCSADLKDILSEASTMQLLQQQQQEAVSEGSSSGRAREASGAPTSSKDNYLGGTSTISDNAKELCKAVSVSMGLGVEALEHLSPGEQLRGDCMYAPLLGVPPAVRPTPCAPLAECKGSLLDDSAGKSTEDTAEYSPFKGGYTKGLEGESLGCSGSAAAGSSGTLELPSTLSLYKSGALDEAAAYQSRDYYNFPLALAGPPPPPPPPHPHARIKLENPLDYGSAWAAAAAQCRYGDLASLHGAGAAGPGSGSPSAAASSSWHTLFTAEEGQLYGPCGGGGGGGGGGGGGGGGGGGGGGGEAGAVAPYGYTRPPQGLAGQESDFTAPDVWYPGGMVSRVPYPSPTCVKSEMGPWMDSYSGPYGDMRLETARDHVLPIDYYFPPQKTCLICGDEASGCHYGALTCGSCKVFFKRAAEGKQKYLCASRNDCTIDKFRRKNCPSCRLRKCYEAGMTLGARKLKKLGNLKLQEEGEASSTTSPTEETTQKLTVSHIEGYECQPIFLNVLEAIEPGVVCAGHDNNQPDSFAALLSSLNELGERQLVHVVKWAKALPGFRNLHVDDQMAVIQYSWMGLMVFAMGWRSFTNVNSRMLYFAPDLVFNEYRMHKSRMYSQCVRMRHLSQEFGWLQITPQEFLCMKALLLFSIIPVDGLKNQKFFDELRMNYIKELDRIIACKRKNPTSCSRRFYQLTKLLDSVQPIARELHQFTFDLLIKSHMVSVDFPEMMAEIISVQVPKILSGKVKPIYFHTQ
Assay: VCAP AR Degradation Assay (AR ELISA, 24 h)
Format: cell-based
Conditions: for Y (lowest measured AR level normalized to DMSO control): AR degradation efficiency; for DC50: concentration of compound when AR level = 50% of DMSO control
Experimental: VCAP AR Degradation Assay.
Test compounds were pre-dispensed into a Corning CellBind 96-well clear bottom plate (Cat #3300) using an acoustic dispenser to make a 10-point concentration series at 1:3 dilution for each compound. The final top concentration of each compound was […]. DMSO at a final concentration of 0.1% was used as a control. VCaP cells cultured in DMEM with 8% fetal bovine serum (FBS) were seeded at 50K cells per well in a 200 μL volume into the compound plate and incubated at 37° C. in a CO2 incubator for 24 h. The medium was carefully removed from the cells and the plate was placed on ice. One hundred […] of ice-cold 1× cell lysis buffer from Cell Signaling Technologies (Cat #9803) was added to each well of the cells and the plate was incubated at 4° C. on a shaker for 1 h. Fifteen […] of cell lysate was used for AR ELISA detection using a PathScan Total Sandwich AR ELISA kit (Cell Signaling Technology, Cat #12580). AR levels in compound-treated wells were normalized to that of DMSO control and expressed as percent of control (PoC) (y). A Four Parameter Logistic Model (Sigmoidal Dose-Response Model) was used to determine the compound's DC50, and EC50, using the following equation: y=(A+((B−A)/(1+((C/x)^D)))) • A=YMin (lowest AR level normalized to DMSO control in response to compound • treatment, as determined by curve fit) • B=YMax (maximum AR level as determined by curve fit) • C=EC50 • D=Hill Slope • x=compound concentration • EC50=the concentration of compound when y=(YMax−YMin)/2 • DC50=the concentration of the compound when y=50% of DMSO control (50% AR degradation) • y=AR protein level normalized to DMSO control
The lowest measured AR level normalized to DMSO control in response to compound treatment, termed Y value, was used to characterize the compound-mediated AR degradation efficiency.

Row | Y (lowest measured AR level normalized to DMSO control) | DC50 (read-out: DC50) [nM] | Compound | DC50 [nM]
1 | ** (25%<Y<=35%) | 500 to 1000 | CC1(C)C(=O)N(c2cnc(C#N)c(C(F)(F)F)c2)C(=S)N1c1ccc(OCC2CCN(CC(=O)Nc3cccc(NC4CCC(=O)NC4=O)c3)CC2)c(Cl)c1 (centres unmarked) [Cmpd 7, 2-(4-((2-chloro-4-(3-(6-cyano-5-(trifluoromethyl)pyridin-3-yl)-5,5-dimethyl-4-oxo-2-thioxoimidazolidin-1-yl)phenoxy)methyl)piperidin-1-yl)-N-(3-(2,6-dioxopiperidin-3-ylamino)phenyl)acetamide] | 
2 | * (0<Y<=25%) | 100 to 500 | CCc1cc(N2C(=S)N(c3cnc(C#N)c(C(F)(F)F)c3)C(=O)C23CCC3)ccc1OCCC1CCN([C@@H](C)C(=O)Nc2cc(NC3CCC(=O)NC3=O)ccc2F)CC1 (stereo partly drawn) [Cmpd 85, (2S)-2-(4-(2-(4-(7-(6-cyano-5-(trifluoromethyl)pyridin-3-yl)-8-oxo-6-thioxo-5,7-diazaspiro[3.4]octan-5-yl)-2-ethylphenoxy)ethyl)piperidin-1-yl)-N-(5-(2,6-dioxopiperidin-3-ylamino)-2-fluorophenyl)propanamide] | 
3 | * (0<Y<=25%) | < 100 | CCc1cc(N2C(=S)N(c3cnc(C#N)c(C(F)(F)F)c3)C(=O)C2(C)C)ccc1OCCC1CCN([C@H](C)C(=O)Nc2cccc(N[C@H]3CCC(=O)NC3=O)c2)CC1 [Cmpd 47, (R)-2-(4-(2-(4-(3-(6-cyano-5-(trifluoromethyl)pyridin-3-yl)-5,5-dimethyl-4-oxo-2-thioxoimidazolidin-1-yl)-2-ethylphenoxy)ethyl)piperidin-1-yl)-N-(3-((S)-2,6-dioxopiperidin-3-ylamino)phenyl)propanamide] | 
4 | * (0<Y<=25%) | < 100 | CCc1cc(N2C(=S)N(c3cnc(C#N)c(C(F)(F)F)c3)C(=O)C2(C)C)ccc1OCCC1CCN(CC(=O)Nc2cccc(NC3CCC(=O)NC3=O)c2)CC1 (centres unmarked) [Cmpd 12, 2-(4-(2-(4-(3-(6-cyano-5-(trifluoromethyl)pyridin-3-yl)-5,5-dimethyl-4-oxo-2-thioxoimidazolidin-1-yl)-2-ethylphenoxy)ethyl)piperidin-1-yl)-N-(3-(2,6-dioxopiperidin-3-ylamino)phenyl)acetamide] | 
5 | * (0<Y<=25%) | < 100 | CCc1cc(N2C(=S)N(c3cnc(C#N)c(C(F)(F)F)c3)C(=O)C2(C)C)ccc1OCCC1CCN([C@@H](C)C(=O)Nc2cccc(N[C@@H]3CCC(=O)NC3=O)c2)CC1 [Cmpd 44, (S)-2-(4-(2-(4-(3-(6-cyano-5-(trifluoromethyl)pyridin-3-yl)-5,5-dimethyl-4-oxo-2-thioxoimidazolidin-1-yl)-2-ethylphenoxy)ethyl)piperidin-1-yl)-N-(3-((R)-2,6-dioxopiperidin-3-ylamino)phenyl)propanamide] | 
6 | * (0<Y<=25%) | 100 to 500 | CCc1cc(N2C(=S)N(c3cnc(C#N)c(C(F)(F)F)c3)C(=O)C2(C)C)ccc1OCCC1(C)CCN(CC(=O)Nc2cc(Cl)cc(NC3CCC(=O)NC3=O)c2)CC1 (centres unmarked) [Cmpd 64, N-(3-chloro-5-(2,6-dioxopiperidin-3-ylamino)phenyl)-2-(4-(2-(4-(3-(6-cyano-5-(trifluoromethyl)pyridin-3-yl)-5,5-dimethyl-4-oxo-2-thioxoimidazolidin-1-yl)-2-ethylphenoxy)ethyl)-4-methylpiperidin-1-yl)acetamide] | 
7 | * (0<Y<=25%) | < 100 | CCc1cc(N2C(=S)N(c3cnc(C#N)c(C(F)(F)F)c3)C(=O)C2(C)C)ccc1OCCC1CCN([C@H](C)C(=O)Nc2cc(Cl)cc(NC3CCC(=O)NC3=O)c2)CC1 (stereo partly drawn) [Cmpd 25, (2R)-N-(3-chloro-5-(2,6-dioxopiperidin-3-ylamino)phenyl)-2-(4-(2-(4-(3-(6-cyano-5-(trifluoromethyl)pyridin-3-yl)-5,5-dimethyl-4-oxo-2-thioxoimidazolidin-1-yl)-2-ethylphenoxy)ethyl)piperidin-1-yl)propanamide] | 

Row | Compound | Y (lowest measured AR level normalized to DMSO control) | DC50 (read-out: DC50) [nM] | DC50 [nM]
8 | CC(C)c1cc(N2C(=S)N(c3ccc(C#N)c(C(F)(F)F)c3)C(=O)C2(C)C)cnc1OCC[C@H]1C[C@@H](C)N(CC(=O)Nc2cccc(NC3CCC(=O)NC3=O)c2)[C@@H](C)C1 (stereo partly drawn) [Cmpd 94, 2-((2S,4r,6R)-4-(2-((5-(3-(4-cyano-3-(trifluoromethyl)phenyl)-5,5-dimethyl-4-oxo-2-thioxoimidazolidin-1-yl)-3-isopropylpyridin-2-yl)oxy)ethyl)-2,6-dimethylpiperidin-1-yl)-N-(3-((2,6-dioxopiperidin-3-yl)amino)phenyl)acetamide] | ** (25%<Y<=35%) | 500 to 1000 | 
9 | CCc1cc(N2C(=S)N(c3ccc(C#N)c(C(F)(F)F)c3)C(=O)C2(C)C)ccc1OCCC1CCN(CC(=O)Nc2cc(F)cc(NC3CCC(=O)NC3=O)c2)CC1 (centres unmarked) [Cmpd 19, 2-(4-(2-(4-(3-(4-cyano-3-(trifluoromethyl)phenyl)-5,5-dimethyl-4-oxo-2-thioxoimidazolidin-1-yl)-2-ethylphenoxy)ethyl)piperidin-1-yl)-N-(3-(2,6-dioxopiperidin-3-ylamino)-5-fluorophenyl)acetamide] | * (0<Y<=25%) | 100 to 500 | 
10 | CC1(C)C(=O)N(c2ccc(C#N)c(C(F)(F)F)c2)C(=S)N1c1ccc(OCCC2CCN(CC(=O)Nc3cccc(NC4CCC(=O)NC4=O)c3)CC2)c(Cl)c1 (centres unmarked) [Cmpd 4, 2-(4-(2-(2-chloro-4-(3-(4-cyano-3-(trifluoromethyl)phenyl)-5,5-dimethyl-4-oxo-2-thioxoimidazolidin-1-yl)phenoxy)ethyl)piperidin-1-yl)-N-(3-(2,6-dioxopiperidin-3-ylamino)phenyl)acetamide] | ** (25%<Y<=35%) | 100 to 500 | 
11 | CCc1cc(N2C(=S)N(c3cnc(C#N)c(C(F)(F)F)c3)C(=O)C23CCC3)ccc1OCCC1C[C@H]2CC[C@@H](C1)N2CC(=O)Nc1cc(Cl)cc(NC2CCC(=O)NC2=O)c1 (stereo partly drawn) [Cmpd 69, N-(3-chloro-5-(2,6-dioxopiperidin-3-ylamino)phenyl)-2-((1R,5S)-3-(2-(4-(7-(6-cyano-5-(trifluoromethyl)pyridin-3-yl)-8-oxo-6-thioxo-5,7-diazaspiro[3.4]octan-5-yl)-2-ethylphenoxy)ethyl)-8-azabicyclo[3.2.1]octan-8-yl)acetamide] | ** (25%<Y<=35%) |  | 100 to 500
12 | CCc1cc(N2C(=S)N(c3ccc(C#N)c(C(F)(F)F)c3)C(=O)C2(C)C)ccc1OCCC1CCN(CC(=O)Nc2cc(NC3CCC(=O)NC3=O)ccc2F)CC1 (centres unmarked) [Cmpd 18, 2-(4-(2-(4-(3-(4-cyano-3-(trifluoromethyl)phenyl)-5,5-dimethyl-4-oxo-2-thioxoimidazolidin-1-yl)-2-ethylphenoxy)ethyl)piperidin-1-yl)-N-(5-(2,6-dioxopiperidin-3-ylamino)-2-fluorophenyl)acetamide] | * (0<Y<=25%) | 100 to 500 | 
13 | CCc1cc(N2C(=S)N(c3ccc(C#N)c(C(F)(F)F)c3)C(=O)C23CCC3)ccc1OCCC1CCN([C@H](C)C(=O)Nc2cccc(NC3CCC(=O)NC3=O)c2)CC1 (stereo partly drawn) [Cmpd 60, (2R)-2-(4-(2-(4-(7-(4-cyano-3-(trifluoromethyl)phenyl)-8-oxo-6-thioxo-5,7-diazaspiro[3.4]octan-5-yl)-2-ethylphenoxy)ethyl)piperidin-1-yl)-N-(3-(2,6-dioxopiperidin-3-ylamino)phenyl)propanamide] | ** (25%<Y<=35%) | 100 to 500 | 
